From patent publication USRE39420E1, “1,2-Diphenylpyrrole derivatives, their preparation and their therapeutic uses” (Sankyo Company, Limited, priority 1996, dated 2006) come the findings set out here.

Each structure is given as a SMILES string.

Experiment [1] addresses T1, Cyclooxygenase-1 from Ram Seminal Vesicle Microsomes (RSVM) (Ovis aries, UniProt P05979).
T1 construct: ram seminal vesicles were homogenised by a blender; from tissue; host or cells: ram seminal vesicles (microsomes)
T1 sequence (P05979 25-600): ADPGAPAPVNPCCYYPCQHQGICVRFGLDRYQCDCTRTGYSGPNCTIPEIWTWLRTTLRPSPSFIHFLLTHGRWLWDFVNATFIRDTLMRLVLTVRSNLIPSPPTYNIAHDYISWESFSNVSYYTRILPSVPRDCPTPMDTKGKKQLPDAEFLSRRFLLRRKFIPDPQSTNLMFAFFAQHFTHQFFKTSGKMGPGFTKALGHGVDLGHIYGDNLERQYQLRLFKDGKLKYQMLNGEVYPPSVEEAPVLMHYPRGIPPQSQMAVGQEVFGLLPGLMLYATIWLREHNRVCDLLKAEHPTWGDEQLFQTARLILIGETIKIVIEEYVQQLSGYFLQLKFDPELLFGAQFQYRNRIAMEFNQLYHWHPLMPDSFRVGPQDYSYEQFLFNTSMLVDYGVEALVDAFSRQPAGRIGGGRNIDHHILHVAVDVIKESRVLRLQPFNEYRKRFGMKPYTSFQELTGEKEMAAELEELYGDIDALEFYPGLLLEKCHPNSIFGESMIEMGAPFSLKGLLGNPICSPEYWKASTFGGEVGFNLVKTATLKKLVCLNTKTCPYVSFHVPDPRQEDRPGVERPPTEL
The experiment can be described thus: Inhibitory activity on cyclooxygenase-1 from ram seminal vesicle microsomes (PGE2 ELISA). The note with it: PGE2 formation, read-out: Inhibitory Effect on COX-1[IC50(μM)]. Format: biochemical. As to the method:
(§1) In order to prepare cyclooxygenase-1 (COX-1) microsomes, ram seminal vesicles were homogenised by a blender. To prepare cyclooxygenase-2 (COX-2) microsomes, an expression vector which contains the human COX-2 gene was introduced into COS cells. The cells were homogenised by sonication after 66 hours cultivation. Microsomes were then prepared in accordance with conventional methods. Enzyme activity was assayed as follows. The assay mixture contained 10 μl of COX-1 or COX-2 microsomes (5 to 15 μg), 2 μl of sample dissolved in dimethyl sulfoxide, 50 μl of 200 mM Tris (pH 7.6), 10 μl of 20 mM reduced glutathione, 10 μl of 10 mM epinephrine, and 15.5 μl of distilled water. After preincubation at 37° C. for 15 minutes, 2.5 μl of 10 μM arachidonic acid (dissolved in ethanol) were then added to the mixture (final volume of 100 μl) and allowed to react at 37° C. for 30 minutes. The final dimethyl sulfoxide and ethanol concentrations were 2% and 2.5%, respectively. To the reaction mixture were then added 15 μl of ice-cooled 0.2M HCl to stop the reaction, and the mixture was cooled at 4° C. for 5 minutes. 15 μl of a 0.2M aqueous solution of sodium hydroxide were then added to the reaction mixture to neutralise the pH. The amount of PGE2, in the reaction mixture was measured using a commercially available ELISA kit (Cayman). IC50 was calculated from the regression line determined by the inhibition rates of PGE2 formation and the concentrations of the compound.

Experiment [2] has as its target T2, Human Recombinant Cyclooxygenase-2 (Homo sapiens, UniProt P35354).
T2 construct: made in house; host or cells: COS cells (transient expression; microsomes prepared after 66 hours)
T2 sequence (P35354 18-604): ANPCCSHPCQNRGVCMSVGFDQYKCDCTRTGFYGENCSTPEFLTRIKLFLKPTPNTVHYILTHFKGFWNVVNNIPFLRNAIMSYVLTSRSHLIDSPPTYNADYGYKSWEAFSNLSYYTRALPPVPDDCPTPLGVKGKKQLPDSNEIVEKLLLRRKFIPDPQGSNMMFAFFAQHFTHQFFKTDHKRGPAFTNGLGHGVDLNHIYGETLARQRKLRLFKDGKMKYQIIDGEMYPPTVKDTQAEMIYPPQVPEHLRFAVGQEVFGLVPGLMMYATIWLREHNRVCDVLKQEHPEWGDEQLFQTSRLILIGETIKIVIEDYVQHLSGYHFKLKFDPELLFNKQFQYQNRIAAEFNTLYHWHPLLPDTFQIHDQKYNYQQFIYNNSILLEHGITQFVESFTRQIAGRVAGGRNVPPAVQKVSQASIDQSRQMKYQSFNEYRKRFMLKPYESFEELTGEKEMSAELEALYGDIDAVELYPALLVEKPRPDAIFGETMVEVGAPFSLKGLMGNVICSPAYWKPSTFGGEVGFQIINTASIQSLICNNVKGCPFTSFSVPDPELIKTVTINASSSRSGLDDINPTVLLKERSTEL
The experiment can be described thus: Inhibitory activity on human recombinant cyclooxygenase-2 microsomes from COS cells (PGE2 ELISA). Format: biochemical. The following applies: for IC50: human recombinant COX-2 microsomes, PGE2 formation, read-out: Inhibitory Effect on COX-2 [IC50 (μM)]. As to the method:
In order to prepare cyclooxygenase-1 (COX-1) microsomes, ram seminal vesicles were homogenised by a blender. To prepare cyclooxygenase-2 (COX-2) microsomes, an expression vector which contains the human COX-2 gene was introduced into COS cells. The cells were homogenised by sonication after 66 hours cultivation. Microsomes were then prepared in accordance with conventional methods.
Enzyme activity was assayed as follows.
as §1, with “The” for “In order to prepare cyclooxygenase-1 (COX-1) microsomes, ram seminal vesicles were homogenised by a blender. To prepare cyclooxygenase-2 (COX-2) microsomes, an expression vector which contains the human COX-2 gene was introduced into COS cells. The cells were homogenised by sonication after 66 hours cultivation. Microsomes were then prepared in accordance with conventional methods. Enzyme activity was assayed as follows. The”
(ELISA stands for enzyme-linked immunosorbent assay.)

Experiment [3] relates to Carrageenan-induced Paw Edema in rats. The experiment can be described thus: Carrageenan-induced paw edema test. Type of experiment: in vivo, Wistar-Imamichi rats. The following applies: Rattus norvegicus, oral, 3 hours after carrageenan, read-out: Inhibition Rate (%). The gist of the method:
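Male Wistar-Imamichi rats (6 weeks, 110-120 g), fasted 16 h, dosed orally 30 min before subplantar injection of 1% carrageenan into right hind paw. Paw volume measured by plethysmometer before dosing and 3 h after carrageenan; edema intensity = (volume at 3 h/volume before injection) − 1.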

By IC50 is commonly meant the concentration that gives 50% inhibition. In the case of `COc1ccc(-c2cc(C)cn2-c2ccc(S(N)(=O)=O)cc2)cc1` [Example 52, 2-(4-Methoxyphenyl)-4-methyl-1-(4-sulfamoylphenyl)pyrrole], the values for the IC50 in experiment [1] and in experiment [2] were more than 100 µM and 0.016 µM, respectively. Moreover, the “Selectivity (COX-1/COX-2)” value in experiment [2] (ratio of IC50 COX-1/COX-2) is more than 6250. In experiment [3], the inhibition in vivo at 50 mg/kg turned out to be 65%.

Consider `Cc1ccc(-c2ccccc2)n1-c1ccc(S(N)(=O)=O)cc1` [Compound A, 5-methyl-2-phenyl-1-(4-sulfamoylphenyl)pyrrole, reference compound], for which the IC50 in experiment [1] and in experiment [2] was more than 100 µM in each case. Besides, the inhibition in vivo at 50 mg/kg in experiment [3] turned out to be 14%.
